{"source": "patent US12527767B2", "about": "(priority 2019, dated 2026)", "origin": "cited, not measured here", "test_system": "corneal neovascularization", "conditions": "rabbit, in vivo", "data": [{"smiles": "O=C1O[C@H]([C@@H](O)CO)C(O)=C1O", "note": "[ascorbic acid]", "values": [{"measurement": "corneal neovascularization", "value": "attenuated corneal neovascularization"}]}]}
